These results are taken from patent publication US9988348B1, “Synthesis and antimicrobial use of a trithiocarbonate derivative” (KING SAUD UNIVERSITY, priority 2017, dated 2018).

Holding throughout (test): disk diffusion assay, inhibition zone
Holding throughout (type): cell-based

Experiment [1] relates to Penicillum chrysogenum AUMC 9476. The note with it: read-out: Inhibition zone diameter of standard antimicrobial agents; for zone of inhibition at 10 µg/disc: P. chrysoginum, 10 μg/disk. On the procedure:
(§1) To evaluate antimicrobial activity of the compound 4, synthesized in our laboratory as novel anti-bacterial and anti-fungal agents, the inhibition zone diameter (mm) and the minimal inhibitory concentration were determined according to (Andrews 2001; Hudzicki 2009). The test carried out on several clinical microorganisms included Gram positive bacteria (Staphylococcus aureus ATCC and Streptococcus mutans ATCC 35668), Gram negative bacteria (Escherichia coli ATCC 25922, Salmonella typhimurium ATCC 14028 and Neisseria meningitides ATCC 1302); yeasts (Candid albicans ATCC 60193, Cryptococcus neoformans Wild strain and Candida parapsilosus ATCC 22019) and molds (Aspergillus fumigatus AUMC 8794, Penicillum chrysogenum AUMC 9476 and Fusarium sp.)
(§2) The clinical microorganisms were cultivated at least three times on suitable culture medium and incubating conditions before susceptibility test. The concentration of microbial inoculation suspensions in sterile sodium chloride solution (0.89%) were adjusted to 0.65 at 620 nm by spectrophotometer. […]
(§3) After that, the disks were dried at 25° C. under sterile conditions by safety biological cabinet. A Mueller-Hinton agar (MHA) (Scharlau Microbiogy, Spain) and a potato dextrose agar (PDA) (Scharlau, Spain) were used to perform antibacterial and antifungal test respectively. The media were prepared according to manufacturer's guidelines. To prepare one liter of MHA and one liter of PDA, 21 grams of MHA and 39 grams of PDA were dissolved in one liter of sterile distilled water, followed by sterilization at 121° C. for 15 minutes by an autoclave (HL-321, Taiwan). The sterilized media were poured in sterile plastic Petri dishes at 50° C. The plates were allowed to let the medium solidify at room temperature. 0.1 ml of microbial inoculation suspensions were spread on dried surface of medium and were kept at 25° C. for 5-10 minutes. The compound 4 and standard antimicrobial drugs discs (Table 1) were dispensed on the surface of inoculated media. The tested bacteria and fungi were incubated at 37±1° C. for 19-22 hours and at 25±1 for 48-72 hours respectively. After the incubation, the diameter of inhibition zone (millimeter) resulting from the biological activity of compound were recorded.

The test system of experiment [2] is Candid albicans ATCC 60193. The note with it: Candida albicans, ATCC60193, C. albicans, read-out: Inhibition zone diameter of standard antimicrobial agents; for zone of inhibition at 10 µg/disc: 10 μg/disk. On the procedure: as §1, §2, §3
Experiment [3] deals with Candida parapsilosus ATCC 22019. The note with it: for susceptibility of the strain to the standard drug, in words / zone of inhibition at 10 µg/disc: C. parasilosus; for zone of inhibition at 10 µg/disc: ATCC22019, 10 μg/disk, read-out: Inhibition zone diameter of standard antimicrobial agents. On the procedure: as §1, §2, §3
The subject of experiment [4] is Cryptococcus neoformans Wild strain. The note with it: for zone of inhibition at 10 µg/disc: C. neoformasn, 10 μg/disk. On the procedure: as §1, §2, §3
In experiment [5] the test system is Fusarium sp. The note with it: read-out: Inhibition zone diameter of standard antimicrobial agents; for zone of inhibition at 10 µg/disc: Fusarium sp., 10 μg/disk. On the procedure:
as §1, §2, §3

The test system of experiment [6] is Aspergillus fumigatus AUMC 8794. The note with it: Aspergillus fumigatus, AUMC8794, A. fumigatus, read-out: Inhibition zone diameter of standard antimicrobial agents; for zone of inhibition at 10 µg/disc: 10 μg/disk. On the procedure:
as §1, §2, §3

Experiment [7] relates to Neisseria meningitides ATCC 1302. The note with it: Neisseria, ATCC1302, N. meningitides, read-out: Inhibition zone diameter of standard antimicrobial agents; for zone of inhibition at 10 µg/disc: 10 μg/disk.
Experiment [8] deals with Staphylococcus aureus ATCC. The note with it: Staphylococcus aureus, S. aureus, read-out: Inhibition zone diameter of standard antimicrobial agents; for zone of inhibition at 10 µg/disc: 10 μg/disk. On the procedure: as §1, §2, §3
Experiment [9] has as its system Streptococcus mutans ATCC 35668. The note with it: Streptococcus mutans, ATCC35668, S. mutans, read-out: Inhibition zone diameter of standard antimicrobial agents; for zone of inhibition at 10 µg/disc: 10 μg/disk. On the procedure:
as §1, §2, §3

Experiment [10] deals with Salmonella typhimurium ATCC 14028. The note with it: Salmonella enterica, Sa. typhimurium, read-out: Inhibition zone diameter of standard antimicrobial agents; for zone of inhibition at 10 µg/disc: 10 μg/disk. On the procedure:
as §1, §2, §3

Experiment [11] concerns Escherichia coli ATCC 25922. The note with it: Escherichia coli, ATCC25922, E. coli, read-out: Inhibition zone diameter of standard antimicrobial agents; for zone of inhibition at 10 µg/disc: 10 μg/disk. On the procedure:
as §1, §2, §3

[12] abbreviates: Cryptococcus neoformans, read-out: Inhibition zone diameter of standard antimicrobial agents.

As for `Clc1ccccc1C(c1ccccc1)(c1ccccc1)n1ccnc1` [Canesten], the zone of inhibition at 10 µg/disc in experiment [1] was 30 mm; in experiment [2] it was 26 mm; in experiment [3] (Candida) it was 0 mm; in experiment [4] (setting [12]) it was 25 mm; in experiment [5], 15 mm; in experiment [6] it was 23 mm. For the same compound, in [3], the “susceptibility of the strain to the standard drug, in words” value (from here on “susceptibility of the strain”) is on record as “resistant”.

For `CC[C@H](C)C[C@H](C)CCCCCCCCC(=O)N[C@H]1C[C@@H](O)[C@@H](NCCN)NC(=O)[C@@H]2[C@@H](O)CCN2C(=O)[C@H]([C@H](O)CCN)NC(=O)[C@H]([C@H](O)[C@@H](O)c2ccc(O)cc2)NC(=O)[C@@H]2C[C@@H](O)CN2C(=O)[C@H]([C@@H](C)O)NC1=O` [Caspofungin], the zone of inhibition at 10 µg/disc was 0 mm in [1]; 20 mm in experiment [2]; 0 mm in [3] (Candida); 0 mm in experiment [4] (setting [12]); 0 mm in [5]; 20 mm in experiment [6]. Besides, the “susceptibility of the strain” value is on record as “resistant” in experiment [3] and “resistance” in experiment [4] (Cr. neoformans strain used in this study).

In the case of `O=C(N[C@H](CO)[C@H](O)c1ccc([N+](=O)[O-])cc1)C(Cl)Cl` [Chloramphenicol], the zone of inhibition at 30 µg/disc is 34 mm in [7] (30 μg/disk); 30 mm in experiment [8] (30 μg/disk); 20 mm in [9] (30 μg/disk); 30 mm in [10] (30 μg/disk); 40 mm in experiment [11] (30 μg/disk).

Turning to `C[C@@H]1C[C@@H]([C@H](O)CC2CC(=O)NC(=O)C2)C(=O)[C@@H](C)C1` [Cycloheximide], the zone of inhibition at 30 µg/disc is 23 mm in [1]; 0 mm in experiment [2] (30 μg/disk); 0 mm in [3] (Candida, ATCC22019, read-out: Inhibition zone diameter of standard antimicrobial agents); 32 mm in experiment [4] (setting [12]); 30 mm in [5] (Fusarium); 22 mm in experiment [6] (30 μg/disk). In addition, the “susceptibility of the strain” value in experiment [3] is “resistant”.

With `CC(=O)O[C@H]1C[C@@]2(C)[C@@H](C[C@@H](O)[C@H]3[C@@]4(C)CC[C@@H](O)[C@@H](C)[C@@H]4CC[C@@]32C)/C1=C(\CCC=C(C)C)C(=O)O` [Fusidic acid], the zone of inhibition at 10 µg/disc worked out at 20 mm in experiment [7]; 23 mm in experiment [8]; 10 mm in experiment [9]; 0 mm in experiment [10]; 0 mm in [11].

Turning to `NC[C@H]1O[C@H](O[C@H]2[C@H](O)[C@@H](O[C@H]3O[C@H](CO)[C@@H](O)[C@H](N)[C@H]3O)[C@H](N)C[C@@H]2N)[C@H](N)C[C@@H]1O` [Tobramycin], the zone of inhibition at 10 µg/disc in [7] is 21 mm; in experiment [8], 14 mm; in experiment [9], 35 mm; in experiment [10] it was 14 mm; in [11] it was 20 mm.
